Data published in patent US11596611B2, “Hepatitis B antiviral agents” (ENANTA PHARMACEUTICALS, INC., priority 2017, dated 2023).
Like-named read-outs stand apart in the source and are kept apart here.

Tested on: HBV
Assay: HepAD38 antiviral assay: reduction of viral product accumulation (virion DNA by qPCR, HBsAg or HBeAg by ELISA)
Type: cell-based, hepatitis B virus
Conditions: Hepatitis B virus
Protocol: Methods: HepAD38 cells are maintained as previously reported (Ladner et al, Antimicrob. Agents Chemother. 1997, […], 1715). Briefly, cells are passaged upon attaining confluency in DMEM/F12 media in the presence of 10% FBS, Penn/Strep, 250 μg/mL G418, and 1 ug/ml tetracycline. Novel compounds are screened by first washing cells three times with PBS to remove tetracycline, and plating in 96 well plates at 35,000 cells/well. Compounds dissolved in DMSO are then diluted 1:200 into wells containing cells. Five days after compound addition, material is harvested for analysis. For an extended 8 days analysis, cells are plated and treated as described above, but media and compound are refreshed on d2 and d5 post initial treatment.
On harvest day, virion DNA is obtained by lysing with Sidestep Lysis and Stabilization Buffer and then quantified via quantitative real time PCR. Commercially available ELISA kits are used to quantitate the viral proteins HBsAg (Alpco) or HbeAg (US Biological) by following the manufacturer's recommended protocol after diluting samples to match the linear range of their respective assays.

[1] = 120 h, HepAD38 cells, five days after compound addition, 50% reduction of viral product vs no drug controls, read-out: HepAD38 EC50
[2] = HePAD38, 120 h, read-out: HepAD38 EC50 (μM)

Compound | EC50 [1] | EC50 [2]
CC(O)[C@]1(O)CC2CC[C@@H](C1)[C@H]2S(=O)(=O)c1cc(C(=O)Nc2ccc(F)c(F)c2)ccc1Cl (mixture of isomers) [Example 7] | < 0.104 µM | 
C[C@@H](O)COCC1(O)CC(S(=O)(=O)c2cc(C(=O)Nc3ccc(F)c(F)c3)ccc2Cl)C1 (some centres unmarked) [Example 234] | > 0.2 µM | 
Cc1ccc(C(O)[C@]2(O)C3CCC2C[C@@H](S(=O)(=O)c2cc(C(=O)Nc4ccc(F)c(F)c4)ccc2Cl)C3)nc1 (some centres unmarked) [Example 293] | < 0.104 µM | 
CC(C)(O)CNC(=O)C[C@]1(O)CC[C@H](CS(=O)(=O)c2cc(C(=O)Nc3ccc(F)c(F)c3)ccc2Cl)CC1 [Example 196] | > 0.2 µM | 
C[C@]1(O)C2CCC1C[C@@H](S(=O)(=O)c1cc(C(=O)Nc3cc(F)cc(F)c3)ccc1Cl)C2 [Example 105] | < 0.104 µM | 
O=C(Nc1ccc(F)c(F)c1)c1ccc(Cl)c(S(=O)(=O)[C@H]2CC3CCC(C2)[C@]3(O)C(O)c2ncccc2F)c1 (some centres unmarked) [Example 297] | < 0.104 µM | 
COC[C@]1(O)C2CCC1C[C@H](S(=O)(=O)c1cc(C(=O)Nc3cc(F)c(F)c(F)c3)ccc1Cl)C2 [Example 124] | < 0.104 µM | 
C[C@@]1(O)C2CC[C@H]1C[C@H](S(=O)(=O)c1cc(C(=O)Nc3ccc(F)c(F)c3)c(-c3ccncc3)cc1Cl)C2 [Example 132] | > 0.2 µM | 
C[C@]1(O)C2CCC1C[C@@H](S(=O)(=O)c1cc(C(=O)Nc3ccc(F)c(F)c3)c(-c3nccs3)cc1Cl)C2 [Example 157] | < 0.104 µM | 
O=C(Nc1ccc(F)c(F)c1)c1ccc(Cl)c(S(=O)(=O)[C@@H]2CC3CC[C@@H](C2)[C@@]3(O)C(O)c2ncccc2C(F)F)c1 (some centres unmarked) [Example 349] | 0.1 to 0.2 µM | 
O=C(Nc1ccc(F)c(F)c1)c1ccc(Cl)c(S(=O)(=O)[C@@H]2CC3CC[C@@H](C2)[C@@]3(O)[C@H](O)c2cc(F)ccn2)c1 [Example 299] | < 0.104 µM | 
O=C(CC1(O)CC(S(=O)(=O)c2cc(C(=O)Nc3ccc(F)c(F)c3)ccc2Cl)C1)NCCO (centres unmarked) [Example 245] | > 0.2 µM | 
Cc1cc(Cl)c(S(=O)(=O)[C@H]2CC3CCC(C2)[C@@]3(C)O)cc1C(=O)Nc1ccc(F)c(F)c1 [Example 69] | < 0.104 µM | 
COCCOC[C@]1(O)C2CCC1C[C@@H](S(=O)(=O)c1cc(C(=O)Nc3cc(F)c(F)c(F)c3)ccc1Cl)C2 [Example 98] | < 0.104 µM | 
O=C(Nc1ccc(F)c(F)c1)c1ccc(Cl)c(S(=O)(=O)[C@H]2CC3CCC(C2)[C@]3(O)C(=O)O)c1 [Example 205] | > 0.2 µM | 
C[C@]1(O)C2CCC1C[C@@H](S(=O)(=O)c1cc(C(=O)Nc3ccc(F)c(F)c3)c(-c3ccccn3)cc1Cl)C2 [Example 133] | > 0.2 µM | 
CC(C)(C1CCC(F)(F)CC1)S(=O)(=O)c1cc(C(=O)Nc2ccc(F)c(F)c2)ccc1Cl [Example 232] | > 0.2 µM | 
COC(=O)[C@H](C)NC(=O)C1CC(S(=O)(=O)c2cc(C(=O)Nc3ccc(F)c(F)c3)ccc2Cl)C1 (some centres unmarked) [Example 255] | > 0.2 µM | 
CC(O)C[C@]1(O)CC[C@H](CS(=O)(=O)c2cc(C(=O)Nc3ccc(F)c(F)c3)ccc2Cl)CC1 (some centres unmarked) [Example 225] | 0.1 to 0.2 µM | 

Compound | EC50 [1] | EC50 [2]
O=C(Nc1cc(F)c(F)c(F)c1)c1ccc(Cl)c(S(=O)(=O)[C@H]2CC3CCC(C2)[C@]3(O)[C@H](O)[C@@H](O)CO)c1 [Example 42] | < 0.104 µM | 
C[C@@H](CO)NC(=O)CC1(O)CC(S(=O)(=O)c2cc(C(=O)Nc3ccc(F)c(F)c3)ccc2Cl)C1 (some centres unmarked) [Example 247] | > 0.2 µM | 
C=CC1(O)CC(S(=O)(=O)c2cc(C(=O)Nc3ccc(F)c(F)c3)ccc2Cl)C1 (centres unmarked) [Example 260] | > 0.2 µM | 
COC[C@@H](C)NC(=O)C[C@]1(O)C2CCC1C[C@@H](S(=O)(=O)c1cc(C(=O)Nc3cc(F)c(F)c(F)c3)ccc1Cl)C2 [Example 115] | < 0.104 µM | 
COC(=O)N1CC(=O)C[C@H]1C(=O)NC[C@]1(O)C2CCC1C[C@@H](S(=O)(=O)c1cc(C(=O)Nc3cc(F)c(F)c(F)c3)ccc1Cl)C2 [Example 74] | 0.1 to 0.2 µM | 
O=C1CC[C@@H](C(=O)NC[C@]2(O)C3CCC2C[C@@H](S(=O)(=O)c2cc(C(=O)Nc4cc(F)c(F)c(F)c4)ccc2Cl)C3)N1 [Example 127] | > 0.2 µM | 
O=C(Nc1cc(F)c(F)c(F)c1)c1ccc(Cl)c(S(=O)(=O)[C@@H]2CC3CC[C@@H](C2)[C@@]3(O)CNC(=O)[C@]2(O)CCC[C@H]2O)c1 (relative stereo) [Example 59] | 0.1 to 0.2 µM | 
O=C(Nc1ccc(F)c(F)c1)c1ccc(Cl)c(S(=O)(=O)[C@H]2CC3CCC(C2)[C@@]3(O)C(O)CN2CCCS2(=O)=O)c1 (some centres unmarked) [Example 309] | 0.1 to 0.2 µM | 
COC(=O)NCCC(=O)N1C2CCC1CC(S(=O)(=O)c1cc(C(=O)Nc3cc(F)c(F)c(F)c3)ccc1Cl)C2 (centres unmarked) [Example 147] | < 0.104 µM | 
C[C@@]1(O)C2CC[C@H]1C[C@H](S(=O)(=O)c1cc(C(=O)Nc3ccc(F)c(F)c3)c(Cc3ccccc3)cc1Cl)C2 [Example 160] | > 0.2 µM | 
O=C(Nc1ccc(F)c(F)c1)c1ccc(Cl)c(S(=O)(=O)[C@H]2CC3CCC(C2)[C@]3(O)C(O)C(O)c2cccnc2)c1 (some centres unmarked) [Example 321] | < 0.104 µM | 
COC[C@H](C)NC(=O)C[C@]1(O)C2CCC1C[C@@H](S(=O)(=O)c1cc(C(=O)Nc3cc(F)c(F)c(F)c3)ccc1Cl)C2 [Example 118] | < 0.104 µM | 
O=C(Nc1ccc(F)c(F)c1)c1ccc(Cl)c(S(=O)(=O)[C@H]2CC3CC[C@@H](C2)[C@@]3(O)C(O)Cn2cccn2)c1 (some centres unmarked) [Example 310] | > 0.2 µM | 
COC(=O)N[C@@H](CCC(N)=O)C(=O)NC[C@]1(O)C2CCC1C[C@@H](S(=O)(=O)c1cc(C(=O)Nc3cc(F)c(F)c(F)c3)ccc1Cl)C2 [Example 84] | > 0.2 µM | 
O=C(Nc1ccc(F)c(F)c1)c1ccc(Cl)c(S(=O)(=O)[C@H]2C[C@@H](CO)C2)c1 [Example 252b] | > 0.2 µM | 
O=C(Nc1ccc(F)c(F)c1)c1ccc(Cl)c(S(=O)(=O)C2CC(O)(CCCO)C2)c1 (centres unmarked) [Example 241] | > 0.2 µM | 
O=C(Nc1cc(F)c(F)c(F)c1)c1ccc(Cl)c(S(=O)(=O)[C@H]2CC3CCC(C2)[C@]3(O)CNC(=O)[C@@H]2CCCO2)c1 (single isomer, unassigned) [Example 14] | < 0.104 µM | 
O=C(Nc1ccc(F)c(F)c1)c1ccc(Cl)c(S(=O)(=O)[C@H]2CC3CCC(C2)[C@]3(O)C(O)CO)c1 (mixture of isomers) [Example 82] | < 0.104 µM | 
O=C(Nc1ccc(F)c(F)c1)c1ccc(Cl)c(S(=O)(=O)[C@H]2CC3CCC(C2)[C@]3(O)CO[C@@H]2O[C@H](C(=O)O)[C@@H](O)[C@H](O)[C@H]2O)c1 [Example 330] | > 0.2 µM | 

Compound | EC50 [1] | EC50 [2]
CC[C@H](O)[C@@H](O)[C@]1(O)C2CCC1C[C@@H](S(=O)(=O)c1cc(C(=O)Nc3ccc(F)c(F)c3)ccc1Cl)C2 [Example 334] | < 0.104 µM | 
C=CCC1(O)CC(S(=O)(=O)c2cc(C(=O)Nc3ccc(F)c(F)c3)ccc2Cl)C1 (centres unmarked) [Example 239] | > 0.2 µM | 
C[C@@H](CO)NC(=O)[C@H]1C[C@@H](S(=O)(=O)c2cc(C(=O)Nc3ccc(F)c(F)c3)ccc2Cl)C1 [Example 256b] | > 0.2 µM | 
O=C(Nc1ccc(F)c(F)c1)c1ccc(Cl)c(S(=O)(=O)[C@H]2CC3CCC(C2)[C@]3(O)C(O)c2ccc(F)c[n+]2[O-])c1 (some centres unmarked) [Example 292] | > 0.2 µM | 
CC1(C)OC[C@H](CN2C3CCC2CC(S(=O)(=O)c2cc(C(=O)Nc4cc(F)c(F)c(F)c4)ccc2Cl)C3)O1 (single isomer, unassigned) [Example 144] |  | 0.1 to 0.2 µM
CC(C)(C)OC(=O)N1CC[C@H](O)[C@H]1C(=O)NC[C@@]1(O)C2CC[C@H]1C[C@H](S(=O)(=O)c1cc(C(=O)Nc3cc(F)c(F)c(F)c3)ccc1Cl)C2 [Example 77] | > 0.2 µM | 
O=C(Nc1ccc(F)c(F)c1)c1ccc(Cl)c(S(=O)(=O)[C@H]2CC3CCC(C2)[C@]3(O)C(O)c2cccnc2)c1 (some centres unmarked) [Example 285] | < 0.104 µM | 
COC[C@]1(O)C2CCC1C[C@@H](S(=O)(=O)c1cc(C(=O)Nc3cc(F)c(F)c(F)c3)ccc1Cl)C2 [Example 123] | < 0.104 µM | 
O=C(O)CCNC(=O)C[C@]1(O)C2CCC1C[C@@H](S(=O)(=O)c1cc(C(=O)Nc3cc(F)c(F)c(F)c3)ccc1Cl)C2 [Example 140] | > 0.2 µM | 
O=C(Nc1cc(F)c(F)c(F)c1)c1ccc(Cl)c(S(=O)(=O)[C@H]2CC3CCC(C2)[C@]3(O)CC(=O)N2CC3(COC3)C2)c1 [Example 94] | < 0.104 µM | 
C[C@@H](CO)NC(=O)[C@H]1C[C@H](S(=O)(=O)c2cc(C(=O)Nc3ccc(F)c(F)c3)ccc2Cl)C1 [Example 256a] | > 0.2 µM | 
C[C@H](O)COCC1(O)CC(CS(=O)(=O)c2cc(C(=O)Nc3ccc(F)c(F)c3)ccc2Cl)C1 (some centres unmarked) [Example 208] | > 0.2 µM | 
COC(=O)CCNC(=O)[C@H]1C[C@H](S(=O)(=O)c2cc(C(=O)Nc3ccc(F)c(F)c3)ccc2Cl)C1 [Example 257a] | > 0.2 µM | 
C[C@]1(O)C2CCC1C[C@@H](S(=O)(=O)c1cc(C(=O)Nc3ccc(Cl)c(F)c3)ccc1Cl)C2 [Example 46] | > 0.2 µM | 
O=C(Nc1cc(F)c(F)c(F)c1)c1ccc(Cl)c(S(=O)(=O)[C@@H]2CC3CC[C@@H](C2)N3C[C@H](O)CO)c1 [Example 153] |  | 0.1 to 0.2 µM
O=C(Nc1cc(F)c(F)c(F)c1)c1ccc(Cl)c(S(=O)(=O)[C@@H]2CC3CC[C@@H](C2)[C@@]3(O)CNC(=O)[C@H]2OCC(O)[C@@H]2O)c1 (some centres unmarked) [Example 29] | > 0.2 µM | 
C[C@]1(O)C2CCC1C[C@@H](S(=O)(=O)c1cc(C(=O)Nc3ccc(F)c(F)c3)c(-c3ccccc3)cc1Cl)C2 [Example 101] | > 0.2 µM | 
O=C(Nc1ccc(F)c(F)c1)c1ccc(Cl)c(S(=O)(=O)[C@@H]2CC3CC[C@@H](C2)[C@@]3(O)C(O)c2ccnc(Br)c2F)c1 (some centres unmarked) [Example 298] | < 0.104 µM | 
